Assay results published in ChEMBL document CHEMBL3991601, “The target landscape of clinical kinase drugs” (Science, 2017).
pKd: −log10 of the molar value. Active and inactive are the calls of the source.

Key:
[1] = biological target: T1, Very long-chain specific acyl-CoA dehydrogenase, mitochondrial (Homo sapiens, UniProt P49748)
T1 sequence (P49748 whole entry): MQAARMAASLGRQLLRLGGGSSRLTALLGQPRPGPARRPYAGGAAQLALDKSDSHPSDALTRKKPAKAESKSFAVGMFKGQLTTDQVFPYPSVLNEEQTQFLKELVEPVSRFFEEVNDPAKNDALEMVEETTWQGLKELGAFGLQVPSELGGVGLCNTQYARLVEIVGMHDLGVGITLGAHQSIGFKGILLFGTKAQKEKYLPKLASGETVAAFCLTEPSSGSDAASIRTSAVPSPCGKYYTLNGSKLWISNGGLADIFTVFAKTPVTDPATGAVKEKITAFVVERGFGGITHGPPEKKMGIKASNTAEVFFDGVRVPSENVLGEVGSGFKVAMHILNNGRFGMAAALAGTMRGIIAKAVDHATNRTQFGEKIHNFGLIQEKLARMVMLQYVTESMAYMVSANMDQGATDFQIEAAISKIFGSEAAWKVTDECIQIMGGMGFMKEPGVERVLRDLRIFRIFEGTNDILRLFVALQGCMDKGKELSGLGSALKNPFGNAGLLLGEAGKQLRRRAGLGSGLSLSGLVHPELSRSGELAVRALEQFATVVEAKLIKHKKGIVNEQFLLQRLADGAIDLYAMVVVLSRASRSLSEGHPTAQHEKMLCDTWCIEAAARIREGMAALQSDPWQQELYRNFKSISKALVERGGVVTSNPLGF

[2] = biological target: Atypical kinase COQ8A, mitochondrial (Homo sapiens, UniProt Q8NI60)
[3] = biological target: T2, Mitogen-activated protein kinase kinase kinase kinase 3 (Homo sapiens, UniProt Q8IVH8)
T2 sequence (Q8IVH8 whole entry): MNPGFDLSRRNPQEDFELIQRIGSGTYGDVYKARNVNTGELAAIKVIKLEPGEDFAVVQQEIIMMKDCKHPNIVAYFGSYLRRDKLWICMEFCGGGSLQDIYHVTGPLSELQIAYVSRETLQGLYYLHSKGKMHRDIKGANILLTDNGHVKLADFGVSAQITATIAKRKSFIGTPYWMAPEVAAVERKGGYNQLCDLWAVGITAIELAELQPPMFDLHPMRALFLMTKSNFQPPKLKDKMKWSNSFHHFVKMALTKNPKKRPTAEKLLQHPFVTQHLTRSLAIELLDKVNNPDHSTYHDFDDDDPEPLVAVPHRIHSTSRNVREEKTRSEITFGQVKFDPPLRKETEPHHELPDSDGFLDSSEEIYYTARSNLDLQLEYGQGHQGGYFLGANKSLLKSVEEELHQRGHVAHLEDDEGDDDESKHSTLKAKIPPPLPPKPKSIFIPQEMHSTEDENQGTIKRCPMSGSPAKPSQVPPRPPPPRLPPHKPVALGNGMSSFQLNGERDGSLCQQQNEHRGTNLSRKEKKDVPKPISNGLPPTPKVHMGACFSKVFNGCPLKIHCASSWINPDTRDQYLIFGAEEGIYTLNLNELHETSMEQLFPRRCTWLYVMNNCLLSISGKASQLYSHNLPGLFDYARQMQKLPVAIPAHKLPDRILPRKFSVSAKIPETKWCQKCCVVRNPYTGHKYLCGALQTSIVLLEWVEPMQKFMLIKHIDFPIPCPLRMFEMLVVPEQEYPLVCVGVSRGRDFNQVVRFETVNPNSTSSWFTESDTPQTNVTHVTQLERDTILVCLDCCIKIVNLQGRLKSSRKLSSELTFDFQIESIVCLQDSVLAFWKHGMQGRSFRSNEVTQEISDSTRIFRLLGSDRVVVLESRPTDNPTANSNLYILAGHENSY

[4] = biological target: Serine/threonine-protein kinase N2 (Homo sapiens, UniProt Q16513)
[5] = biological target: cAMP-dependent protein kinase catalytic subunit gamma (Homo sapiens, UniProt P22612)
[6] = biological target: T3, Structural maintenance of chromosomes protein 1A (Homo sapiens, UniProt Q14683)
T3 sequence (Q14683 whole entry): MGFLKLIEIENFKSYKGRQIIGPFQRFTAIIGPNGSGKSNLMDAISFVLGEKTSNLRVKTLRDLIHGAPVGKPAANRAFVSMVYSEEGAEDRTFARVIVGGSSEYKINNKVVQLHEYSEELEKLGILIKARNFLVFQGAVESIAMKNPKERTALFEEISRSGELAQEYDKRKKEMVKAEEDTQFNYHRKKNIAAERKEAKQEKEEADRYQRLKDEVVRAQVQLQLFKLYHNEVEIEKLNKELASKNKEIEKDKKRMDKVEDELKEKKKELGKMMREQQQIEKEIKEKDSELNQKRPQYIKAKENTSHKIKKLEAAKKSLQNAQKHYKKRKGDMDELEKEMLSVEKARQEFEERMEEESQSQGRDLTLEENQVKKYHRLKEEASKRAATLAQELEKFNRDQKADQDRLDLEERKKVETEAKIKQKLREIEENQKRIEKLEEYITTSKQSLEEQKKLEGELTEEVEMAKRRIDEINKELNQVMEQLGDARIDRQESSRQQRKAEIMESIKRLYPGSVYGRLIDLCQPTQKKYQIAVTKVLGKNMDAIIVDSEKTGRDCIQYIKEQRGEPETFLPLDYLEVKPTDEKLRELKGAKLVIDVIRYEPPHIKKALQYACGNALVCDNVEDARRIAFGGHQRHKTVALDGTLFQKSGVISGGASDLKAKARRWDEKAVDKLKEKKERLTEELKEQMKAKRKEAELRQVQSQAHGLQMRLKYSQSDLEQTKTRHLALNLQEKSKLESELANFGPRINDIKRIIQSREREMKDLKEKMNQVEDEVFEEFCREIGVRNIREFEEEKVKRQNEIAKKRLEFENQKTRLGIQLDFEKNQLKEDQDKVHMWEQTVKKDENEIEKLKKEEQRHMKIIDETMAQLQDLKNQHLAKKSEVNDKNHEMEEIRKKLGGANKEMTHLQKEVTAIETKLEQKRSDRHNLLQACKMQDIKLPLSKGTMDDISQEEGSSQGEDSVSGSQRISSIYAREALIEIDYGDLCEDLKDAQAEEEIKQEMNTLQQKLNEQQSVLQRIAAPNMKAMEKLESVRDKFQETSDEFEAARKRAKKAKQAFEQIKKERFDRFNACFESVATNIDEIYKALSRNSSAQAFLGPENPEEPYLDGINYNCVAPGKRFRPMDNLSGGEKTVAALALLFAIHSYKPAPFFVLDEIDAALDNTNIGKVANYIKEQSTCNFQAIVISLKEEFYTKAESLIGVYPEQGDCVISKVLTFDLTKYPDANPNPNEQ

[7] = biological target: Tyrosine-protein kinase JAK1 (Homo sapiens, UniProt P23458)
Further: in the data inactive means no Kd found up to 30 µM.

Chain of cAMP-dependent protein kinase catalytic subunit gamma (P22612 whole entry): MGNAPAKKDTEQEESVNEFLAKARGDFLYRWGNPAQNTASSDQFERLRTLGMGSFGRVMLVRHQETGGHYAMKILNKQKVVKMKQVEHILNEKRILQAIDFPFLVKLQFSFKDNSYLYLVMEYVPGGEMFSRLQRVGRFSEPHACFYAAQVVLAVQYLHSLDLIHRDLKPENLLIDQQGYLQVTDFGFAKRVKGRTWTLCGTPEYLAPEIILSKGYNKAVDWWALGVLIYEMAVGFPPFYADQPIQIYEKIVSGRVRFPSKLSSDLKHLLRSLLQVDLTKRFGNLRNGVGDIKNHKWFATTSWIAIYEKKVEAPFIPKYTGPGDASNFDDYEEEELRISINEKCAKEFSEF
Chain of Atypical kinase COQ8A, mitochondrial (Q8NI60 whole entry): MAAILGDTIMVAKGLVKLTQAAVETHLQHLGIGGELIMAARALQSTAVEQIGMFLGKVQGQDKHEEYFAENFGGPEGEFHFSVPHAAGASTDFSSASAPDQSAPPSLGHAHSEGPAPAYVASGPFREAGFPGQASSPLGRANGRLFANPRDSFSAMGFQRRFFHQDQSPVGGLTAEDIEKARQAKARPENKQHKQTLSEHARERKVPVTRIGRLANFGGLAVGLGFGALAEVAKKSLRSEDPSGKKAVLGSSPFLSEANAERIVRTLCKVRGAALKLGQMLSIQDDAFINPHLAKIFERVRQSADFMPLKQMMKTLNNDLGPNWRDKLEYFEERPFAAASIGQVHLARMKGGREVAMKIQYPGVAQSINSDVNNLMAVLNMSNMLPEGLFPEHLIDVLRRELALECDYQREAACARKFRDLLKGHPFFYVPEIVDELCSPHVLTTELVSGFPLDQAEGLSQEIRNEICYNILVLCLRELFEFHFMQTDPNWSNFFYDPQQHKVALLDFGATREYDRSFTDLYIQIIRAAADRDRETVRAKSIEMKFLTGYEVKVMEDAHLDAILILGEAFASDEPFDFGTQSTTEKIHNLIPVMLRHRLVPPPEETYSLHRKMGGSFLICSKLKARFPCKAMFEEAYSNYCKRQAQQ
Chain of Tyrosine-protein kinase JAK1 (P23458 whole entry): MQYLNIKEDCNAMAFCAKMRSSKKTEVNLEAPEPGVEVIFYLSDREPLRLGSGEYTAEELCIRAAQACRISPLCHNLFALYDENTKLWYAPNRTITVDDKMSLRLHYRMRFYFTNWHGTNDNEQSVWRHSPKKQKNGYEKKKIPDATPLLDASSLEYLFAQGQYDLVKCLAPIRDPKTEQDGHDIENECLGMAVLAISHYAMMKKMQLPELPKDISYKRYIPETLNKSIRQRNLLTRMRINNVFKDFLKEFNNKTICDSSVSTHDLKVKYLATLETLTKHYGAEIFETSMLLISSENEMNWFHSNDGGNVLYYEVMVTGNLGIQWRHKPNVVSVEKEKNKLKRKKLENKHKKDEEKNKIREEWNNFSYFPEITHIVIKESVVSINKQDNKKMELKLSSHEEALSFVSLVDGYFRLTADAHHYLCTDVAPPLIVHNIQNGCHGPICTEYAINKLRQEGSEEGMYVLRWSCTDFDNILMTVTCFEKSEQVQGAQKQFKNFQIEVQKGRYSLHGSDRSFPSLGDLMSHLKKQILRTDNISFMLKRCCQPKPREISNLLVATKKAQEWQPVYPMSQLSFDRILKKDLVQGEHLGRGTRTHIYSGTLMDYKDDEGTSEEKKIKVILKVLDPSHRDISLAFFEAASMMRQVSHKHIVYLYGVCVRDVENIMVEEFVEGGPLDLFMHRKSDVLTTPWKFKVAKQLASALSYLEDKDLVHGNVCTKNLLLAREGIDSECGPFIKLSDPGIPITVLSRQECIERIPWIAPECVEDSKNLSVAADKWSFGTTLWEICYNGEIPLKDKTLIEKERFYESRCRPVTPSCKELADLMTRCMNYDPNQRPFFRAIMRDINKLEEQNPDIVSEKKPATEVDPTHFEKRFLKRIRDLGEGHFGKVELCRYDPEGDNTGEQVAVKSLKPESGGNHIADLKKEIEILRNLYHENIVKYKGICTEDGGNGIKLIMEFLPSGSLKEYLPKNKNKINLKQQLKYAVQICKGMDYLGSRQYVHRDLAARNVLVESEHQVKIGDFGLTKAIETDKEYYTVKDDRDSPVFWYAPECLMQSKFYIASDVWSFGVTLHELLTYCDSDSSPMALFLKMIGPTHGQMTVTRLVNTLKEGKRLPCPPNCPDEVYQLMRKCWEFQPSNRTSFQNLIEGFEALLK
Chain of Serine/threonine-protein kinase N2 (Q16513 whole entry): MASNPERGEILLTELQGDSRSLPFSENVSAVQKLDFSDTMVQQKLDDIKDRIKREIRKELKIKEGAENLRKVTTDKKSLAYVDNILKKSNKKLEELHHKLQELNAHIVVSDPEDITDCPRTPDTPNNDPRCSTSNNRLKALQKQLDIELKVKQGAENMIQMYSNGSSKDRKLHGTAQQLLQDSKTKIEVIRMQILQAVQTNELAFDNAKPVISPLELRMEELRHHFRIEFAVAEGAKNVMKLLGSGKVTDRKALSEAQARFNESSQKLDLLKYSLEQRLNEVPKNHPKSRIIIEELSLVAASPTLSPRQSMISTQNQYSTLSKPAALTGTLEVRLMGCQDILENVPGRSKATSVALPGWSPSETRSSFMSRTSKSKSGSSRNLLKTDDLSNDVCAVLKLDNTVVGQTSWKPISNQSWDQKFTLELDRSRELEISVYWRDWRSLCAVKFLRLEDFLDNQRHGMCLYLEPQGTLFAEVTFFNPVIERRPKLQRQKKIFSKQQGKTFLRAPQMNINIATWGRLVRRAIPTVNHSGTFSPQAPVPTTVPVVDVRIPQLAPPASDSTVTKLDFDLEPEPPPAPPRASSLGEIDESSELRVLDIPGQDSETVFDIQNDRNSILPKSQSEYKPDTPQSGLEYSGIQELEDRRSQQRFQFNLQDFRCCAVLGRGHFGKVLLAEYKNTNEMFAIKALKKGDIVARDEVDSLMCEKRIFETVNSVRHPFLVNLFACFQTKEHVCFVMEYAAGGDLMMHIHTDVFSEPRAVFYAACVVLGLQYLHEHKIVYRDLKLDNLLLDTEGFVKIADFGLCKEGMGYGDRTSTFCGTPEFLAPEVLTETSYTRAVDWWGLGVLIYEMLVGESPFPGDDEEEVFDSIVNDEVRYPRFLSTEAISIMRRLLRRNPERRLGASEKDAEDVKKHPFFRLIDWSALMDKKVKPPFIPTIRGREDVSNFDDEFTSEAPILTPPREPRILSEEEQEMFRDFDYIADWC

| SMILES | Kd [1] | Kd [2] | Kd [3] | Kd [4] | Kd [5] | Kd [6] | Kd [7] | pKd [5] |
| --- | --- | --- | --- | --- | --- | --- | --- | --- |
| Cn1cc(-c2[nH]c3cc(NC(=O)[C@H](N)C4CCCCC4)cc4c3c2C=NNC4=O)cn1 | > 30 µM (inactive) | > 30 µM (inactive) | 1.54 µM (active) | > 30 µM (inactive) | > 30 µM (inactive) | > 30 µM (inactive) |  |  |
| CCN1CCN(Cc2ccc(Nc3ncc(F)c(-c4cc(F)c5nc(C)n(C(C)C)c5c4)n3)nc2)CC1 [ABEMACICLIB] | > 30 µM (inactive) | > 30 µM (inactive) | > 30 µM (inactive) | > 30 µM (inactive) | > 30 µM (inactive) | > 30 µM (inactive) | > 30 µM (inactive) |  |
| Cc1c(NC(=O)OC[C@@H]2COCCN2)cn2ncnc(Nc3ccc4c(cnn4Cc4cccc(F)c4)c3)c12 [AC-480] | > 30 µM (inactive) | > 30 µM (inactive) | > 30 µM (inactive) | > 30 µM (inactive) | > 30 µM (inactive) |  | > 30 µM (inactive) |  |
| CCc1cc2c(cc1N1CCC(N3CCOCC3)CC1)C(C)(C)c1[nH]c3cc(C#N)ccc3c1C2=O [ALECTINIB] | > 30 µM (inactive) | > 30 µM (inactive) | > 30 µM (inactive) | > 30 µM (inactive) | > 30 µM (inactive) | > 30 µM (inactive) | > 30 µM (inactive) |  |
| COc1ccc2c(OCc3nnc4ccc(-c5ccccc5)nn34)ccnc2c1 [AMG-208] | > 30 µM (inactive) | > 30 µM (inactive) | > 30 µM (inactive) | > 30 µM (inactive) |  | > 30 µM (inactive) | > 30 µM (inactive) | 8.70 |
| Cc1cc(Nc2nc(N[C@@H](C)c3ncc(F)cn3)ncc2Cl)n[nH]1 [AZD-1480] | > 30 µM (inactive) | > 30 µM (inactive) | > 30 µM (inactive) | > 30 µM (inactive) | > 30 µM (inactive) | > 30 µM (inactive) | > 30 µM (inactive) |  |
| CCN(CCCOc1ccc2c(Nc3cc(CC(=O)Nc4cccc(F)c4)n[nH]3)ncnc2c1)CCOP(=O)(O)O [BARASERTIB] | > 30 µM (inactive) | > 30 µM (inactive) | > 30 µM (inactive) | > 30 µM (inactive) | > 30 µM (inactive) | > 30 µM (inactive) | > 30 µM (inactive) |  |
| COc1ccc(-c2ccc3ncc4c(c3c2)n(-c2ccc(N3CCNCC3)c(C(F)(F)F)c2)c(=O)n4C)cn1 [BGT-226 FREE BASE] | > 30 µM (inactive) | > 30 µM (inactive) | > 30 µM (inactive) | > 30 µM (inactive) | > 30 µM (inactive) | > 30 µM (inactive) | > 30 µM (inactive) |  |
| COc1cccc(Nc2ncnn3ccc(CN4CC[C@@H](N)[C@H](O)C4)c23)c1 [BMS-690514] | > 30 µM (inactive) | > 30 µM (inactive) | > 30 µM (inactive) | > 30 µM (inactive) | > 30 µM (inactive) | > 30 µM (inactive) | > 30 µM (inactive) |  |
| CCOc1ccn(-c2ccc(F)cc2)c(=O)c1C(=O)Nc1ccc(Oc2ccnc(N)c2Cl)c(F)c1 [BMS-777607] | > 30 µM (inactive) | > 30 µM (inactive) | > 30 µM (inactive) | > 30 µM (inactive) | > 30 µM (inactive) | > 30 µM (inactive) | > 30 µM (inactive) |  |
| COc1cc2nccc(Oc3ccc(NC(=O)C4(C(=O)Nc5ccc(F)cc5)CC4)cc3)c2cc1OC [CABOZANTINIB] | > 30 µM (inactive) | > 30 µM (inactive) | > 30 µM (inactive) | > 30 µM (inactive) | > 30 µM (inactive) | > 30 µM (inactive) | > 30 µM (inactive) |  |
| CC1(COc2ccc3c(c2)ncn3-c2ccc3cccc(N4CCC(N)CC4)c3n2)COC1 [CRENOLANIB] | > 30 µM (inactive) | > 30 µM (inactive) | 0.406 µM (active) | 1.21 µM (active) | > 30 µM (inactive) | > 30 µM (inactive) | > 30 µM (inactive) |  |
| CC[C@@](C)(Nc1ccnc(-c2c[nH]c3ncccc23)n1)C(=O)NCC(F)(F)F [DECERNOTINIB] | > 30 µM (inactive) | > 30 µM (inactive) | > 30 µM (inactive) | > 30 µM (inactive) | > 30 µM (inactive) | > 30 µM (inactive) | > 30 µM (inactive) |  |
| CNC(=O)c1ccc(Nc2ncc(C(F)(F)F)c(NCc3nccnc3N(C)S(C)(=O)=O)n2)cc1 [DEFACTINIB] | > 30 µM (inactive) | > 30 µM (inactive) | > 30 µM (inactive) | > 30 µM (inactive) | > 30 µM (inactive) | > 30 µM (inactive) | > 30 µM (inactive) |  |
| CCc1nc(C(N)=O)c(Nc2ccc(N3CCC(N4CCN(C)CC4)CC3)c(OC)c2)nc1NC1CCOCC1 [GILTERITINIB] | > 30 µM (inactive) | > 30 µM (inactive) |  | > 30 µM (inactive) | > 30 µM (inactive) | > 30 µM (inactive) | > 30 µM (inactive) |  |
| COc1cc(F)c(F)c(Nc2ccc(I)cc2F)c1NS(=O)(=O)C1(C[C@H](O)CO)CC1 [REFAMETINIB] | > 30 µM (inactive) | > 30 µM (inactive) | > 30 µM (inactive) | > 30 µM (inactive) | > 30 µM (inactive) |  | > 30 µM (inactive) |  |
| C=CCN(/C=C1/C(=O)O[C@H](COC)[C@@]2(C)C1=C(O)C(=O)C1=C2[C@H](OC(C)=O)C[C@]2(C)C(=O)CC[C@@H]12)CC=C [SONOLISIB] | > 30 µM (inactive) | > 30 µM (inactive) | > 30 µM (inactive) | > 30 µM (inactive) |  |  | > 30 µM (inactive) | 8.15 |
